Test results as given in patent publication US8410310B2, “Trypsin-like serine protease inhibitors, and their preparation and use” (The Medicines Company (Leipzig) GmbH, priority 2006, dated 2013).

Experiments:
Type in all cases: biochemical
[1] = system: t-PA-induced fibrinolysis in plasma; experiment: Plasma fibrinolysis assay (turbidometric); conditions: human plasma, t-PA 50 U/mL; for IC50: read-out: IC50 on t-PA-induced fibrinolysis in plasma (median [25%; 75% percentile])
Experimental: Venous blood was withdrawn from the antecubital vein from healthy volunteers after written informed consent in accordance with local and federal guidelines with approval of the local review board (Ethikkommission, Klinikum Charité, Sauerbruchweg 5, 10117 Berlin). The blood was mixed with 0.11 mol/L sodium citrate (1:10). For ROTEM® analysis, whole citrated blood was used within 8 h after collection. Platelet-rich plasma (PRP) was prepared from citrated blood by centrifugation at 330×g for 10 min at room temperature, platelet-poor plasma (PPP) was collected following centrifugation at 1220×g for 12 min. The PRP was then adjusted to 3×10^8 platelets per mL using the autologous PPP. PRP was maintained at room temperature for less than 4 h before analysis. The remaining PPP was subjected to a high-speed centrifugation at 40,000×g for 30 min at 4° C. to remove any particulate material and was then stored at −70° C. until use.
The antifibrinolytic activity of Compound No. 3 in comparison to aprotinin and tranexamic acid was investigated in plasma and whole blood assays. In both assays, tissue factor was added to initiate rapid clot formation via the extrinsic pathway which produces a clot that remains stable for several hours under normal conditions. Supplementation of plasma or whole blood with tissue-type plasminogen activator (t-PA) before stimulation results in activation of endogenous plasminogen and thus fibrinolysis while the initial clot formation is not impaired. […] A final concentration of 50 U/mL and 100 U/mL in plasma and whole blood, respectively, was chosen to achieve complete lysis within about 60 min. In the presence of antifibrinolytics, clot lysis is delayed in a concentration-dependent manner.
Inhibition of fibrinolysis in plasma was examined using a turbidometric method in 96-well flat-bottom plates. The time course of clot formation and lysis, reflected by an initial increase and subsequent decrease in turbidity, was recorded by continuously measuring the optical density (OD) at 405 nm. Similar models have been used widely to study the clot lysis process in human plasma (Kim et al., J. Thromb. Haemost. 5: 1250-6, 2007) as well as its inhibition by antifibrinolytic drugs (Sperzel et al., J. Thromb. Haemost. 5: 2113-8, 2007). Frozen and thawed human plasma (PPP) was pre-incubated with test compound or vehicle (Owren's Veronal buffer) for 5 min at 37° C. […] OD at 405 nm was monitored every 45 s for 180 min at 37° C. with a microplate reader (POLARstar OPTIMA, BMG Labtech, Offenburg, Germany). Fibrinolysis was quantified as the relative decrease in OD at 45 min after the maximum OD was reached. […]

[2] = target: Thrombin (Homo sapiens, UniProt P00734); experiment: Inhibition constants against purified human serine proteases: thrombin; design: Human factor Xa, factor XIa, factor XIIa, thrombin, and plasma kallikrein were purchased; purchased Enzyme Research Laboratories (via Haemochrom, Essen); conditions: 50 mM Tris-HCl pH 8.0, 154 mM NaCl, Pefachrom tPA
Description: Aprotinin and tranexamic acid were purchased from SIGMA (Schnelldorf, Germany). Human factor Xa, factor XIa, factor XIIa, thrombin, and plasma kallikrein were purchased from Enzyme Research Laboratories, and human plasmin from Chromogenix (both via Haemochrom, Essen, Germany). Various synthetic peptide chromogenic substrates used for determination of inhibition constants were obtained from Pentapharm (Basel, Switzerland), Roche (Mannheim, Germany), and Chromogenix: Chromozyme PL for plasmin, S2302 for plasma kallikrein, Pefachrome FXa for factor Xa, Chromozym XII for FXIIa, Pefachrom tPA for thrombin, and Pefachrome PCa for factor XIa. […]
Inhibition of purified human serine proteases by Compound No. 3 and aprotinin was studied using the established methods described herein in Example 3 (i.e., Stürzebecher et al., 1997). […] Steady-state velocities of substrate conversion were obtained from progress curves generated by continuous monitoring of the absorbance at 405 nm with a microplate reader (Multiskan Ascent, Thermo Electron Corporation, Dreieich, Germany). […] Inhibition constants (Ki) were calculated from non-linear fits of individual data sets to the Michaelis-Menten equation for competitive inhibitors using an enzyme kinetic analysis software (SIGMA Plot® 9.0 Enzyme Kinetics Module, SSI, San Jose, Calif.). […]

[3] = target: T1, Human factor Xa (Homo sapiens, UniProt P00742); experiment: Inhibition constants against purified human serine proteases: FXa; conditions: for Ki: 50 mM Tris-HCl pH 8.0, 154 mM NaCl, Pefachrome FXa
T1 construct: Human factor Xa, factor XIa, factor XIIa, thrombin, and plasma kallikrein were purchased; purchased Enzyme Research Laboratories (via Haemochrom, Essen)
Description: Aprotinin and tranexamic acid were purchased from SIGMA (Schnelldorf, Germany). Human factor Xa, factor XIa, factor XIIa, thrombin, and plasma kallikrein were purchased from Enzyme Research Laboratories, and human plasmin from Chromogenix (both via Haemochrom, Essen, Germany). Various synthetic peptide chromogenic substrates used for determination of inhibition constants were obtained from Pentapharm (Basel, Switzerland), Roche (Mannheim, Germany), and Chromogenix: Chromozyme PL for plasmin, S2302 for plasma kallikrein, Pefachrome FXa for factor Xa, Chromozym XII for FXIIa, Pefachrom tPA for thrombin, and Pefachrome PCa for factor XIa. Tissue-type plasminogen activator was obtained from Boehringer Ingelheim (Ingelheim, Germany). INTEM, EXTEM and STARTEM reagents and disposables for ROTEM® measurements were obtained from Pentapharm (Munich, Germany).
Inhibition of purified human serine proteases by Compound No. 3 and aprotinin was studied using the established methods described herein in Example 3 (i.e., Stürzebecher et al., 1997). Enzyme kinetic experiments were carried out in 96-well flat-bottom plates (Brand, Wertheim, Germany) in 50 mM Tris-HCl pH 8.0, 154 mM NaCl in the presence of different substrate and inhibitor concentrations. Steady-state velocities of substrate conversion were obtained from progress curves generated by continuous monitoring of the absorbance at 405 nm with a microplate reader (Multiskan Ascent, Thermo Electron Corporation, Dreieich, Germany). […] Inhibition constants (Ki) were calculated from non-linear fits of individual data sets to the Michaelis-Menten equation for competitive inhibitors using an enzyme kinetic analysis software (SIGMA Plot® 9.0 Enzyme Kinetics Module, SSI, San Jose, Calif.). Dixon plot analysis was applied to confirm the competitive inhibition mode.

[4] = system: coagulation in human plasma (PPP); experiment: Plasma coagulation times (prothrombin time, activated partial thromboplastin time); conditions: for plasma coagulation times (prothrombin time, activated partial thromboplastin time): 100 to 1000 nM
Description: Since Compound No. 3 inhibits multiple proteases of the coagulation system, we investigated possible anticoagulant properties using established tests in vitro. Whereas tissue factor is the physiologic trigger of coagulation, both extrinsic and contact-mediated stimulation contribute to hemostatic activation under conditions like CPB (Boisclair et al. Blood 82: 3350-7, 1993 and Edmunds et al., Ann. Thorac. Surg. 82: 2315-22, 2006). We therefore studied the impact of Compound No. 3 and aprotinin on coagulation in plasma and whole blood following both intrinsic and extrinsic stimulation. Tranexamic acid has no influence on other proteases than plasminogen and, therefore, is not included in these experiments.
Prothrombin time and activated partial thromboplastin time were determined after human plasma (PPP) was supplemented with test compound solution or saline using a conventional coagulation analyzer (Sysmex CA-560, Dade Behring). Reagents used were Innovin® (extrinsic activator containing tissue factor) for prothrombin time and Actin® FSL (contact activator containing ellagic acid and phospholipids) for activated partial thromboplastin time, both from Dade Behring (Eschborn, Germany).

[5] = higher aprotinin concentrations (data not shown)

T1 sequence (P00742 235-488 limits assumed): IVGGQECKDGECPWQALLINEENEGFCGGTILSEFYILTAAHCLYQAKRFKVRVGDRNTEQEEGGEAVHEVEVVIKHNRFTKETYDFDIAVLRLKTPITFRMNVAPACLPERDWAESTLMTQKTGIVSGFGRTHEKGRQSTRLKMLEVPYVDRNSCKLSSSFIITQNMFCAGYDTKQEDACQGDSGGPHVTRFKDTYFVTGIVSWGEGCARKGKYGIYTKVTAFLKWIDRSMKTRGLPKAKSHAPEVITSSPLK
T1 sequence (P00742 41-179 partner limits assumed): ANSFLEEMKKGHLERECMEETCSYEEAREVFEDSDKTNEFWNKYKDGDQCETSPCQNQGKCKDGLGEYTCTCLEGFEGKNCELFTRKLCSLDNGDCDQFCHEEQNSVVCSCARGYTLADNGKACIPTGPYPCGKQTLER

## N=C(N)c1ccc(CNC(=O)[C@H](Cc2cccc(CN)c2)NC(=O)[C@@H](CCCc2ccccc2)NS(=O)(=O)Cc2cccc(C(=O)O)c2)cc1 [compound 3, 3-HOOC-Bzls-d-Ppg-Phe(3-Ame)-4-Amba×2 acetate]
[1]
  IC50: 315 nM
[2]
  Ki: 1700 ± 200 nM
[3]
  Ki: 45 ± 5 nM
[3]; versus aprotinin
  stronger inhibition of FXa than aprotinin: 1200 fold
[4]
  plasma coagulation times (prothrombin time, activated partial thromboplastin time): significant prolongation

## aprotinin
[1]; converted from nM
  IC50 on t-PA-induced fibrinolysis in plasma expressed in KIU/mL: 15 KIU/mL
[1]
  IC50: 327 nM
[2]
  Ki: 76000 nM
[3]
  Ki: 55600 nM
[4]
  plasma coagulation times (prothrombin time, activated partial thromboplastin time): almost no influence
[4]; [5]
  activated partial thromboplastin time: marked prolongation
  extrinsic coagulation: not affected
